In the CheMixHub ionic liquid set:

Experiment: xn = mol fraction of the nth substance listed

[I-].[Li+] + CCCC[n+]1ccn(C)c1.N#C[N-]C#N
electrical conductivity [S/m], 101 kPa
Settings | x2 = 0.917 | x2 = 0.9294 | x2 = 0.9462 | x2 = 0.9628 | x2 = 0.9799
288.15 K | – | 0.389 | 0.465 | 0.506 | 0.569
298.15 K | 0.577 | 0.643 | 0.749 | 0.809 | 0.892
333.15 K | 1.92 | 2.04 | 2.28 | 2.33 | 2.56

CCCn1cc[n+](CCC)c1.O=S(=O)([N-]S(=O)(=O)C(F)(F)F)C(F)(F)F + O
100 kPa, x2 = 0.2232
Settings | viscosity [mPa·s]
303.15 K | 29.21
313.15 K | 20.49
333.15 K | 11.48
348.15 K | 8.09
363.15 K | 6

CC[n+]1ccn(C)c1.[Br-] + O
viscosity [mPa·s], 100 kPa
Settings | 288.15 K | 298.15 K | 303.15 K | 308.15 K | 318.15 K | 333.15 K
x1 = 0.0001802 | 1.141 | 0.911 | – | 0.744 | 0.627 | –
x1 = 0.0007203 | 1.147 | 0.916 | – | 0.748 | 0.632 | –
x1 = 0.00126 | 1.152 | 0.923 | – | 0.754 | 0.639 | –
x1 = 0.049 | – | – | 1.48 | – | – | 0.797
x1 = 0.1978 | – | – | 5.45 | – | – | –

CC(=O)[O-].CCCC[P+](CCCC)(CCCC)CCCC + CC(=O)[O-].CCCC[n+]1ccn(C)c1
101 kPa
Settings | viscosity [mPa·s]
313.15 K, x2 = 0.751 | 246
323.15 K, x2 = 0.5018 | 169.2

O=[N+]([O-])[O-].O=[N+]([O-])[O-].[Mg+2] + O + CC[NH3+].O=[N+]([O-])[O-]
100 kPa
Settings | electrical conductivity [S/m] | viscosity [mPa·s]
223 K, x1 = 0.2128, x2 = 0.6185 | 0.001 | –
233 K, x1 = 0.2128, x2 = 0.6185 | 0.006 | –
243 K, x1 = 0.1395, x2 = 0.4931 | 0.002 | –
243 K, x1 = 0.2128, x2 = 0.6185 | 0.02 | –
253 K, x1 = 0.1395, x2 = 0.4931 | 0.019 | –
253 K, x1 = 0.2128, x2 = 0.6185 | 0.052 | –
263 K, x1 = 0.1395, x2 = 0.4931 | 0.077 | –
263 K, x1 = 0.2128, x2 = 0.6185 | 0.113 | –
273 K, x1 = 0.1395, x2 = 0.4931 | 0.206 | –
273 K, x1 = 0.2128, x2 = 0.6185 | 0.216 | –
283 K, x1 = 0.1395, x2 = 0.4931 | 0.429 | –
283 K, x1 = 0.2128, x2 = 0.6185 | 0.375 | –
288.15 K, x1 = 0.1395, x2 = 0.4931 | – | 172
288.15 K, x1 = 0.2128, x2 = 0.6185 | – | 334
293 K, x1 = 0.1395, x2 = 0.4931 | 0.76 | –
293 K, x1 = 0.2128, x2 = 0.6185 | 0.602 | –
293.15 K, x1 = 0.1395, x2 = 0.4931 | – | 138.7
293.15 K, x1 = 0.2128, x2 = 0.6185 | – | 253
298.15 K, x1 = 0.1395, x2 = 0.4931 | – | 112.6
298.15 K, x1 = 0.2128, x2 = 0.6185 | – | 193
303 K, x1 = 0.1395, x2 = 0.4931 | 1.2 | –
303 K, x1 = 0.2128, x2 = 0.6185 | 0.91 | –
303.15 K, x1 = 0.1395, x2 = 0.4931 | – | 92
303.15 K, x1 = 0.2128, x2 = 0.6185 | – | 148.9
308.15 K, x1 = 0.1395, x2 = 0.4931 | – | 75.7
308.15 K, x1 = 0.2128, x2 = 0.6185 | – | 115.8
313 K, x1 = 0.1395, x2 = 0.4931 | 1.74 | –
313 K, x1 = 0.2128, x2 = 0.6185 | 1.31 | –
313.15 K, x1 = 0.1395, x2 = 0.4931 | – | 62.7
313.15 K, x1 = 0.2128, x2 = 0.6185 | – | 90.7
323 K, x1 = 0.1395, x2 = 0.4931 | 2.37 | –
323 K, x1 = 0.2128, x2 = 0.6185 | 1.8 | –
333 K, x1 = 0.1395, x2 = 0.4931 | 3.08 | –
333 K, x1 = 0.2128, x2 = 0.6185 | 2.39 | –
343 K, x1 = 0.1395, x2 = 0.4931 | 3.86 | –
343 K, x1 = 0.2128, x2 = 0.6185 | 3.08 | –
353 K, x1 = 0.1395, x2 = 0.4931 | 4.69 | –
353 K, x1 = 0.2128, x2 = 0.6185 | 3.88 | –
363 K, x1 = 0.1395, x2 = 0.4931 | 5.56 | –
363 K, x1 = 0.2128, x2 = 0.6185 | 4.78 | –
373 K, x1 = 0.1395, x2 = 0.4931 | 6.46 | –
373 K, x1 = 0.2128, x2 = 0.6185 | 5.78 | –

CC[n+]1ccn(C)c1.[Br-] + C[NH2+]CCC=C1c2ccccc2CCc2ccccc21.[Cl-] + O
viscosity [mPa·s], 100 kPa
Settings | 288.15 K | 298.15 K | 308.15 K | 318.15 K
x2 = 0, x1 = 0.0001802 | 1.141 | 0.911 | 0.744 | 0.627
x2 = 0, x1 = 0.0007203 | 1.147 | 0.916 | 0.748 | 0.632
x2 = 0, x1 = 0.00126 | 1.152 | 0.923 | 0.754 | 0.639

CCCC[n+]1ccn(C)c1.O=[N+]([O-])[O-] + CCCCCO
100 kPa
Settings | viscosity [mPa·s]
293.15 K, x1 = 0.4363 | 18.2
293.15 K, x1 = 0.5668 | 29.3
293.15 K, x1 = 0.7481 | 61
313.15 K, x1 = 0.6481 | 18.9
313.15 K, x1 = 0.8416 | 38.7
313.15 K, x1 = 0.9415 | 57.5
323.15 K, x1 = 0.0824 | 2.22
323.15 K, x1 = 0.9415 | 35.5

CCCCCC[n+]1ccn(C)c1.O=[N+]([O-])[O-] + CCC(C)O
viscosity [mPa·s], 100 kPa
Settings | 293.15 K | 298.15 K | 303.15 K | 308.15 K | 313.15 K | 318.15 K | 323.15 K
x1 = 0.0819 | 7.63 | 5.55 | 4.2 | 3.3 | 2.59 | 2.14 | 1.79
x1 = 0.1591 | 14.93 | 10.31 | 7.2 | 5.2 | 3.92 | 3.18 | 2.52
x1 = 0.2414 | 28.5 | 19.3 | 13.16 | 9.1 | 6.75 | 5.3 | 3.9
x1 = 0.3517 | 54.2 | 37.9 | 27.6 | 18 | 13.16 | 10.35 | 7.8
x1 = 0.4412 | 87.8 | 63.7 | 46.7 | 30.6 | 21.5 | 16.77 | 12.8
x1 = 0.5591 | 156.2 | 117.1 | 84.5 | 56.4 | 38 | 29.4 | 23
x1 = 0.6518 | 227 | 172.4 | 117.1 | 81.3 | 58.7 | 43 | 33.6
x1 = 0.7392 | 322 | 238 | 158.7 | 113.3 | 84.5 | 60.9 | 47.3
x1 = 0.8516 | 475 | 342 | 230 | 168.2 | 124.1 | 91.6 | 71.1
x1 = 0.9395 | 641 | 451 | 304 | 218 | 159.2 | 119.8 | 94.4
x1 = 1 | 804 | 545 | 369 | 258 | 186 | 140.2 | 110.9
